For 20 compounds, GI50 and TGI results are on record in PubChem BioAssay (NCI).

Each structure is given as a SMILES string.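 Results reflect a 48-hour exposure of cells in 96-well plates to compound at five concentrations. GI50 marks 50% less growth. The concentration for full growth arrest is given as TGI.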

Holding throughout (assay): NCI anticancer screen, dose series, 48 h
Assay [1] relates to T-47D breast.
Assay [2] relates to BT-549 breast.
The test system of assay [3] is PC-3 prostate.
The test system of assay [4] is MDA-N.

`COc1cccc(N=Cc2c3ccccc3c(=O)n3c2oc2ccccc23)c1`: the GI50 in assay [1] was more than 100 µM; in assay [2], 21.9 µM; in assay [3], 3.81 µM. For the same compound, the TGI in assay [1] was more than 100 µM; in assay [2] it was more than 100 µM; in assay [3], 39.6 µM.
As for `CN1C(NC(=O)c2ccc(Cl)nc2)=NS(=O)(=O)c2cc(Cl)ccc21`, the GI50 in assay [1], in assay [2] and in assay [3] was more than 100 µM in each case. Besides, the TGI in assay [1], in assay [2] and in assay [3] was more than 100 µM each time.
On to `O=C(C[C@@H](C(=O)NCc1cccc(C(F)(F)F)c1)N1C(=O)[C@@H](N2C(=O)OC[C@@H]2c2ccccc2)[C@H]1/C=C/c1ccccc1)NC1CCN(Cc2ccccc2)CC1`, for which the values for the GI50 in assay [1], in assay [2] and in assay [3] were 15.7 µM, 2.96 µM and 6.06 µM, respectively. Moreover, the TGI turned out to be 38.9 µM in assay [1], 8.81 µM in assay [2] and 20.8 µM in assay [3].
With `C[C@]12CC[C@@H]3c4ccc(Oc5nc(N6CC6)nc(N6CC6)n5)cc4CC[C@H]3[C@@H]1CCC2=O`, the figures for the GI50 in assay [1], in assay [2] and in assay [3] were 3.55 µM, 5.92 µM and 3.46 µM, respectively. Moreover, the TGI worked out at 19.4 µM in assay [1], 25.3 µM in assay [2] and 21.8 µM in assay [3].
As to `COc1ccc(-n2c(SCc3cc(OC)c(OC)c(OC)c3)nc3ccc(C)cc3c2=O)cc1`, the GI50 in assay [1] was 5.46 µM; in assay [2], 7.37 µM; in assay [3] it was 2.83 µM. The TGI in assay [1], in assay [2] and in assay [3] was more than 100 µM each time.
With `Cc1c2c(nn1-c1ccc(S(=O)(=O)/N=C3\SCC(=O)N3C(=O)c3ccccc3)cc1)-c1ccccc1CC2`, in assay [2], the GI50 was 38.6 µM and the TGI was 92.9 µM. Moreover, in assay [3], the GI50 was 42.1 µM and the TGI is more than 100 µM.
Consider `COc1ccc(OC(=O)O[C@H]2[C@H](O[C@H]3[C@@H](O)COC(O[C@H]4C[C@H]5[C@@H]6CC=C7C[C@@H](O)CC[C@]7(C)[C@H]6CC[C@]5(C)[C@H]4[C@H](C)C(=O)CCC(C)C)[C@@H]3OC(C)=O)OC[C@@H](O)[C@@H]2O)cc1` (stereo partly specified), for which the GI50 in assay [1] was 0.0505 µM; in assay [2], 0.0185 µM; in assay [3] it was 0.0103 µM. Further, the TGI in assay [1] was 19.8 µM; in assay [2] it was 15.2 µM; in assay [3] it was 10.1 µM.
As to `COc1ccc(/C(=N/Nc2ccc([N+](=O)[O-])cc2)Sc2cc(Cl)c(C)cc2S(N)(=O)=O)cc1`, the GI50 in assay [1] is 7.16 µM; in assay [2] it was 22.2 µM; in assay [3] it was 5.2 µM. The results for the TGI in assay [1], in assay [2] and in assay [3] were 19.2 µM, 42.3 µM and 17.6 µM, respectively.
As for `COc1ccc2cc(C(=O)/C=C/c3cccc(OC)c3OC)ccc2c1`, the values for the GI50 in assay [1], in assay [2] and in assay [3] were 3.9 µM, 20.6 µM and 17.4 µM, respectively. The TGI in assay [1] turned out to be 35.5 µM; in assay [2], 63.1 µM; in assay [3], 46.1 µM.
As to `COc1cc(C(=O)O[C@H](C(N)=O)[C@]2(C)CO2)c2ccccc2c1`, the results for the GI50 in assay [1], in assay [2] and in assay [3] were 10.7 µM, 18.5 µM and 25 µM, respectively. Moreover, the figures for the TGI in assay [1], in assay [2] and in assay [3] were 27.3 µM, 38.9 µM and more than 100 µM, respectively.
With `COc1ccc(C(=O)/C=C/c2cccnc2Nc2cc(OC)c(OC)c(OC)c2)cc1`, the GI50 was 1.94 µM in assay [1], 3.1 µM in assay [2] and 1.53 µM in assay [3]. For the same compound, the TGI in assay [1] turned out to be 15.6 µM; in assay [2] it was 11.6 µM; in assay [3], 10.1 µM.
As to `NCCCCn1c2c(c3ccccc3c1=O)C(=O)c1ccccc1-2`, the GI50 in assay [1] is 0.631 µM; in assay [2] it was 0.754 µM; in assay [3], 0.193 µM. The TGI in assay [1] was 6.81 µM; in assay [2] it was 2.5 µM; in assay [3] it was 2.16 µM.
As for `CC(C)(C)C1=CC(=CC=C2C=CN(CCCCCCCCCCCO)C=C2)C=C(C(C)(C)C)C1=O`, the TGI came to 3.04 µM in assay [4], 2.7 µM in assay [1], 4.44 µM in assay [2] and 3.68 µM in assay [3].
`C[C@]12CC[C@@H]3c4ccc(O)cc4CC[C@H]3[C@@H]1CC[C@@H]2NS(=O)(=O)c1ccc(C(F)(F)F)cc1`: the GI50 in assay [1] is 2.68 µM; in assay [2], 1.7 µM; in assay [3], 1.99 µM. The TGI in assay [1] was determined as 6.32 µM; in assay [2] it was 3.2 µM; in assay [3], 5.24 µM.
In the case of `CC12CCCC(CC(=O)c3[nH]c4ccccc4c31)C2` (stereo unspecified), the GI50 in assay [1] is 0.65 µM; in assay [2] it was 0.624 µM; in assay [3], 0.698 µM. Further, the TGI in assay [1] was more than 100 µM; in assay [2], 12.8 µM; in assay [3], more than 100 µM.
`O=[N+]([O-])c1ccc2nnnn2c1`: the TGI in assay [1], in assay [2] and in assay [3] was more than 100 µM throughout.
Regarding `COc1cc(Cn2c(-c3ccccc3)cc3c2-c2oncc2CC3)cc(OC)c1OC`, the values for the GI50 in assay [1] and in assay [3] were 1.07 µM and 3.62 µM, respectively. Besides, the TGI in assay [1] was 81.2 µM; in assay [3], more than 100 µM.
Consider `COC(=O)[C@]12CCC(C)(C)C[C@H]1C1=CC[C@@H]3[C@@]4(C)C/C(=C/c5cccnc5)C(=O)C(C)(C)[C@@H]4CC[C@@]3(C)[C@]1(C)CC2`, for which the figures for the GI50 in assay [1], in assay [2] and in assay [3] were 2.96 µM, 2.56 µM and 2.37 µM, respectively. Further, the TGI in assay [1] was 28 µM; in assay [2] it was 7.93 µM; in assay [3], 10.4 µM.
With `COc1ccc(-c2nc(-c3nc4ccc(C)cc4[nH]3)c3ccccn23)cc1`, the figures for the GI50 in assay [1], in assay [2] and in assay [3] were 2.27 µM, 2.55 µM and 1.88 µM, respectively. Besides, the TGI is 8.06 µM in assay [1], 6.36 µM in assay [2] and 7.68 µM in assay [3].
As for `COc1cccc(NCc2nnc(Nc3ccc(Cl)cc3)c3ccccc23)c1`, the GI50 is 0.649 µM in assay [1], 1.9 µM in assay [2] and 1.19 µM in assay [3]. The TGI in assay [1] worked out at 6.56 µM; in assay [2], 7.42 µM; in assay [3], 9.33 µM.
